Reference: patent US20240409557A1, “5,6-FUSED AND 6,6-FUSED BICYCLIC ALCOHOLS AND ETHERS AND COMPOSITIONS FOR USE AS 15-PROSTAGLANDIN DEHYDROGENASE MODULATORS” (AMGEN INC., priority 2023, published 2024)

What was measured:
[1] = biological target: T1, human recombinant 15-PGDH (Homo sapiens, UniProt P15428); assay: Recombinant 15-PGDH enzymatic inhibition assay (PGDH-Lumi, NADH signal); format: biochemical; conditions: recombinant 15-PGDH; 15 min pre-incubation, 60 min reaction with PGE2 and NAD+, NADH signal
T1 sequence (P15428 1-266): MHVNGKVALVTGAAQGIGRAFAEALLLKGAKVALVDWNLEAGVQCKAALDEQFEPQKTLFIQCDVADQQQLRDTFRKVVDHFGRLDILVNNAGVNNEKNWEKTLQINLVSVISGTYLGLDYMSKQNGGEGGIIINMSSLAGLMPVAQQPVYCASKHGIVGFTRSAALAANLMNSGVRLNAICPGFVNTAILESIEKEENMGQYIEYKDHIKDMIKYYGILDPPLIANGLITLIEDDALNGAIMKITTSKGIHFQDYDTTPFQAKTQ
Protocol: These assays measured 15-PGDH enzymatic activity by quantifying the amount of NADH produced during a 60-minute reaction initiated by the addition of PGE2 and NAD+. Under the conditions of these experiments, the increase of NADH signal upon oxidation of PGE2 and reduction of NAD+ was linearly proportional to 15-PGDH enzymatic activity. The recombinant human, mouse, rat and dog 15-PGDH enzymatic assays were performed in a 25 μL volume of reaction buffer containing 50 mM Tris, pH 7.5, 0.01% Tween-20 and […] DTT in a 384-well microtiter plate. In concentration-response experiments with tested compounds, 22 concentrations from 2-fold serial dilutions in DMSO were pre-incubated with 15-PGDH for 15 minutes at room temperature. Then, PGE2 and β-NAD+ were added to initiate the 15-PGDH reaction. After 60 minutes at room temperature, the reaction was quenched and NADH signal was measured using a microtiter plate reader.
The following data (Table 27-1) provides the IC50 in μM of each compound for inhibiting enzymatic activity of the recombinant 15-PGDH in the assay described above.

15-PGDH in A549 cells = biological target: T2, 15-PGDH in A549 cells (Homo sapiens, UniProt P15428); assay: A549 cellular 15-PGDH assay (PGE2 accumulation, HTRF); format: cell-based; conditions: interleukin-stimulated, inhibitor 24 hrs, PGE2 by competitive HTRF, read-out: A549 Cell Assay IC50
T2 construct: endogenous in cells; host or cells: A549
T2 sequence (P15428 1-266): T1 sequence (P15428 1-266)
Description: This assay was used for the quantification of IL-13 induced Native Prostaglandin E2 (PGE2) produced by A549 cells (epithelial cells from lung carcinoma) in cell culture supernatants. […] PGE2 was detected in a competitive HTRF assay by using anti PGE2 antibody labeled with Europium cryptate, and PGE2 labeled with […]. The PGE2 present in the sample competes with the binding between the two HTRF detection solutions (reagents) and thereby prevents FRET from occurring. The specific signal is inversely proportional to the PGE2 concentration. From this binding data, IC50 values were calculated.

Structure (SMILES)	IC50 [1] [nM]	IC50 (15-PGDH in A549 cells) [nM]
Cn1cc2cc(-c3cc(C4CC4)c4cc(C(O)C5CCC5)sc4n3)cnc2n1 (single isomer, unassigned) [Compound B8, cyclobutyl(4-cyclopropyl-6-(2-methyl-2H-pyrazolo[3,4-b]pyridin-5-yl)thieno[2,3-b]pyridin-2-yl)methanol]	0.393	0.919
C[C@@H](O)c1cc2c(C3CC3)cc(-c3cnc4nn(C)cc4c3)nc2s1 (single isomer, unassigned) [Compound B11R]	3.42	26.9
CC[C@@H](O)c1cc2c(C3CC3)cc(-c3cnc4nn(C)cc4c3)nc2s1 (single isomer, unassigned) [Compound B13R]	0.57	3.2
Cn1cc2cc(-c3ccc4cc([C@@H](O)C5CC5)sc4n3)cnc2n1 (single isomer, unassigned) [Compound B16S]	27	9.58
Cn1cc2cc(-c3ccc4cc([C@@H](O)[C@@H]5CCOC5)sc4n3)cnc2n1 (single isomer, unassigned) [Compound B19SR]	1.87	3.53
Cn1cc2cc(-c3ccc4cc([C@H](O)C(F)(F)F)sc4n3)cnc2n1 (single isomer, unassigned) [Compound B23R]	0.422	0.389
Cn1cc2cc(-c3ccc4cc([C@@H](O)C(F)(F)F)sc4n3)cnc2n1 (single isomer, unassigned) [Compound B23S]	121	19.2
CCC[C@H](O)c1cc2ccc(-c3cnc4nn(C)cc4c3)nc2s1 (single isomer, unassigned) [Compound B27S]	12.3	1.78
Cn1cc2cc(-c3ccc4cc([C@H](O)C5COC5)sc4n3)cnc2n1 (single isomer, unassigned) [Compound B28R]	0.424	0.16
Cn1cc2cc(-c3ccc4cc([C@@H](O)C5COC5)sc4n3)cnc2n1 (single isomer, unassigned) [Compound B28S]	12.2	9.56
COCC[C@H](O)c1cc2ccc(-c3cnc4nn(C)cc4c3)nc2s1 (single isomer, unassigned) [Compound B29S]	10.5	3.08
Cn1ncc2cc(-c3ccc4cc([C@H](O)C5CCOCC5)sc4n3)ccc21 (single isomer, unassigned) [Compound B34R]	12.4	39.8
Cn1ncc2cc(-c3ccc4cc([C@H](O)C5CCOCC5)sc4n3)cnc21 (single isomer, unassigned) [Compound B35R]	1.09	18.2
O[C@@H](c1cc2ccc(-c3ccc4[nH]ncc4c3)nc2s1)C1CCOCC1 (single isomer, unassigned) [Compound B37R]	8.74	61.7
Cn1nc2cc(-c3ccc4cc([C@H](O)C5CCOCC5)sc4n3)cnc2n1 (single isomer, unassigned) [Compound B39R]	0.423	2.37
O[C@@H](c1cc2ccc(-c3ccc4oncc4c3)nc2s1)C1CCOCC1 (single isomer, unassigned) [Compound B43R]	13.8	196
O[C@@H](c1cc2ccc(-c3cnc4[nH]nnc4c3)nc2s1)C1CCOCC1 (single isomer, unassigned) [Compound B44R]	0.464	2.61
Cc1nc2cc(-c3ccc4cc([C@@H](O)C5CC(F)(F)C5)sc4n3)ccc2o1 (single isomer, unassigned) [Compound B46S]	2.1	17.4
O[C@H](c1cc2ccc(-c3cnc4[nH]ncc4c3)nc2s1)C1CC(F)(F)C1 (single isomer, unassigned) [Compound B47S]	0.758	1.93
Cc1cn2cc(-c3ccc4cc([C@H](O)C5CC(F)(F)C5)sc4n3)ccc2n1 (single isomer, unassigned) [Compound B48R]	0.4	1.77
Cn1ccc2cc(-c3ccc4cc([C@@H](O)C5CC(F)(F)C5)sc4n3)ccc2c1=O (single isomer, unassigned) [Compound B50S]	1.86	7.99
O[C@H](c1cc2ccc(-c3ccc4nccnc4c3)nc2s1)C1CC(F)(F)C1 (single isomer, unassigned) [Compound B52S]	1.6	11.7
CCn1cc2cc(-c3ccc4cc([C@@H](O)C5CC(F)(F)C5)sc4n3)cnc2n1 (single isomer, unassigned) [Compound B53S]	0.436	0.288
CCC[C@@H](O)c1cc2ccc(-c3cnc4nn(C)cc4c3)cc2s1 (single isomer, unassigned) [Compound B54R]	4.11	11.8
Cc1cn2ccc(-c3ccc4cc([C@@H](O)C5CC(F)(F)C5)sc4n3)cc2n1 (single isomer, unassigned) [Compound B55S]	2.64	11.8
CC(C)n1cc2cc(-c3ccc4cc([C@H](O)C5CC(F)(F)C5)sc4n3)ccc2n1 (single isomer, unassigned) [Compound B56R]	0.603	2.47
COCC[C@@H](O)c1cc2ccc(-c3cnc4nn(C)cc4c3)cc2s1 (single isomer, unassigned) [Compound B59R]	4.75	7.79

The next compounds have a lower IC50 [1] than those just listed; values first:

IC50 [1] [nM]	IC50 (15-PGDH in A549 cells) [nM]	Structure (SMILES)
0.325	0.149	Cn1cc2cc(-c3ccc4cc([C@H](O)C5CC5)sc4n3)cnc2n1 (single isomer, unassigned) [Compound B16R]
0.244	0.381	Cn1cc2cc(-c3ccc4cc([C@H](O)[C@@H]5CCOC5)sc4n3)cnc2n1 (single isomer, unassigned) [Compound B19RR]
0.258	0.614	CC(C)[C@@H](O)c1cc2ccc(-c3cnc4nn(C)cc4c3)nc2s1 (single isomer, unassigned) [Compound B24R]
0.255	0.728	CCC[C@@H](O)c1cc2ccc(-c3cnc4nn(C)cc4c3)nc2s1 (single isomer, unassigned) [Compound B27R]
0.209	0.745	COCC[C@@H](O)c1cc2ccc(-c3cnc4nn(C)cc4c3)nc2s1 (single isomer, unassigned) [Compound B29R]
0.35	0.406	Cn1cc2cc(-c3ccc4cc([C@@H](O)C5CC(F)(F)C5)sc4n3)cnc2n1 (single isomer, unassigned) [Compound B30S]
0.203	0.53	Cn1cc2cc(-c3ccc4cc([C@H](O)C5CCC(F)(F)CC5)sc4n3)cnc2n1 (single isomer, unassigned) [Compound B31R]
0.277	0.697	Cc1nc2cc(-c3ccc4cc([C@H](O)C5CC(F)(F)C5)sc4n3)ccc2o1 (single isomer, unassigned) [Compound B46R]
0.21	0.366	O[C@@H](c1cc2ccc(-c3cnc4[nH]ncc4c3)nc2s1)C1CC(F)(F)C1 (single isomer, unassigned) [Compound B47R]
0.26	0.723	Cn1cnc(-c2ccc3cc([C@H](O)C4CC(F)(F)C4)sc3n2)cc1=O (single isomer, unassigned) [Compound B49R]
0.343	0.52	Cn1ccc2cc(-c3ccc4cc([C@H](O)C5CC(F)(F)C5)sc4n3)ccc2c1=O (single isomer, unassigned) [Compound B50R]
0.164	0.357	Cc1nc2ccc(-c3ccc4cc([C@H](O)C5CC(F)(F)C5)sc4n3)cc2o1 (single isomer, unassigned) [Compound B51R]
0.291	0.69	O[C@@H](c1cc2ccc(-c3ccc4nccnc4c3)nc2s1)C1CC(F)(F)C1 (single isomer, unassigned) [Compound B52R]
0.222	0.354	CCn1cc2cc(-c3ccc4cc([C@H](O)C5CC(F)(F)C5)sc4n3)cnc2n1 (single isomer, unassigned) [Compound B53R]
0.308	0.657	Cc1cn2ccc(-c3ccc4cc([C@H](O)C5CC(F)(F)C5)sc4n3)cc2n1 (single isomer, unassigned) [Compound B55R]
0.32	0.657	O[C@@H](c1cc2ccc(-c3cncnc3)nc2s1)C1CC(F)(F)C1 (single isomer, unassigned) [Compound B57R]
0.24	1.41	Cn1cc2cc(-c3ccc4cc([C@H](O)C5CCCC5)sc4c3)cnc2n1 (single isomer, unassigned) [Compound B58R]
